The values that follow come from patent US6235707A, “Anticoagulant peptidyl-arginine aldehyde derivatives” (Gyogyszerkutato Intezet Kft., priority 1996, dated 2001).

For assay [1], the system named is citrate plasma. Briefly: prothrombin time (PT) plasma clotting test. Type of assay: biochemical. The following applies: Table 3; twofold prolongation compared to control; read-out: A: anticoagulant IC50, PT. The procedure:
(§1) Anticoagulant activity (i.e. inhibition of the proteolytic reactions in the process) is measured by anticoagulant tests, e.g. in the thrombin time (TT), activated partial thromboplastin time (APTT) and prothrombin time (PT) tests [E. J. W. Bovie et al., Mayo Clinic Laboratory Manual of Haemostasis; W. B. Saunders Co., Philadelphia (1971)]. Plasma, inhibited in spontaneous coagulation, e.g. citrate-plasma, is made to coagulate and the required coagulation time is measured. Upon the action of anticoagulants the coagulation time is prolonged proportionally to the inhibition of the reaction(s) in the process. The anticoagulant effect can be characterised by the substance concentration required to prolong the coagulation time twofold compared to the control (IC50). The effect of anticoagulants on individual coagulant proteases is measured by the amidolytic method [R. Lottenberg et al., Methods in Enzymol. 80, 341 (1981); G. Cleason, Blood Coagulation and Fibrinolysis 5, 411 (1994)]. The isolated active factor (e.g. thrombin, fXa) and its chromogen or fluorogen peptide-amide substrate are reacted in the presence or absence of the inhibitor, resp. The enzyme inhibiting action is characterised by the inhibitory constant (IC50) measured during amidolysis.
(§2) In the TT test coagulation is initiated by the thrombin added to the citrate plasma. In the system 22 pmol/ml of thrombin is functioning and its inhibition can be measured on the fibrinogen (one of the natural substrates of thrombin) in the presence of plasma components. In the APTT and PT tests the full coagulation process takes place. Depending on the activator fX is activated either by the extrinsic or the intrinsic pathway. The generated fXa activates prothrombin to thrombin which, in turn, triggers plasma coagulation. The coagulation time is prolonged if the enzymes or one of them is inhibited by the inhibitor. In the APTT and PT tests at most 40 pmol/ml Xa can be generated (this is the full amount of factor X present in both systems) while 150 pmol/ml (APTT) and 350 pmol/ml (PT) of thrombin are generated [B. Kaiser et al., Thromb. Res. 65, 157 (1992)].
(§3) The in vitro anticoagulant effects of the compounds of general formula (I) was measured by the prothrombin time (PT), activated partial thromboplastin time (APTT) and thrombin time (TT) tests [D. Bagdy et al., Thromb. Haemost. 67, 325 (1992)]. The fxa-inhibiting effect of the compounds was also determined using the Bz-Ile-Glu-Gly-Arg-pNA chromogen substrate (see method M6).

Assay [2] concerns citrate plasma. Description: activated partial thromboplastin time (APTT) plasma clotting test. The class given is biochemical. The following applies: Table 3; twofold prolongation compared to control; read-out: A: anticoagulant IC50, APTT. The procedure:
as §1, §2, §3

The next assay has as its target thrombin (Homo sapiens, UniProt P00734). Briefly: thrombin time (TT) plasma clotting test. Type of assay: biochemical. The following applies: Table 3; twofold prolongation compared to control; read-out: A: anticoagulant IC50, TT. As for the experimental part: as §1, §2, §3
The target in assay [3] is T1, fibrin gel-bound thrombin (Homo sapiens, UniProt P00734).
T1 construct: purchased SIGMA
Description: inhibition of fibrin gel-bound thrombin (Methods M4, M5). To be noted: human fibrinogen clotted with human thrombin; Tos-Gly-Pro-Arg-pNA substrate. Type of assay: biochemical. The procedure:
Plasma-clot was obtained by recalcificating platelet-rich human plasma, and fibrin gel by clotting human fibrinogen with human thrombin. For the activity measures of fXa and thrombin Z-D-Arg-Gly-Arg-pNA or Tos-Gly-Pro-Arg-pNA substrates were used in agreement with Methods M1-M3.
Preparation of Fibrin Clots
a) To each reaction vessel 200 μl of human fibrinogen (SIGMA), 25 μl of 25 NIH/E/ml human thrombin (SIGMA) and 40 μl of 100 mM CaCl2 solution is placed and the mixtures are allowed to stand for 1 hour at 20-22° C. The fibrin clots are washed with isotonic NaCl-solution (3×2 ml) under gentle stirring to remove traces of thrombin and sedimented for 5 min. The effectiveness of the washing can be checked by the method M1/c.
Determination of Inhibition of Fibrin-clot Bound Thrombin
a) 0.1-1.0-10 and 100 μg/ml solutions are made from the peptide inhibitors with Hepes/NaCl buffer (0.001 M Hepes and 0.1 M NaCl, pH=7.4).
b) Measurements are continued according to M3/b.

Assay [4] has as its system New Zealand white rabbits. Briefly: ex vivo TT in citrate plasma of rabbits after p.o. dosing. To be noted: p.o. 5 mg/kg. Set-up: species or system rabbit. The procedure:
(§4) The anticoagulant and platelet aggregation inhibiting effect of the compounds of general formula (I) was studied in New Zealand white rabbits ex vivo according to D. Bagdy et al. [Thromb. Haemost. 67, 357 (1992)]. The compounds were dissolved in buffered isotonic saline solution and administered i.v. (0,04-5.0 mg/kg) or by infusion (0.25-5.0 mg/kg/h) or subcutaneously (0.5-6.0 mg/kg) or p.o. (2.5-20 mg/kg). The effect of the compounds was detectable already within 30 minutes following p.o. administration, peak values were attained after 60-180 minutes and the therapeutic level was maintained dose-dependently for 3→6 hours.
(§5) The in vivo effect of ethoxycarbonyl-3-cyclobutyl-D-alanyl-L-prolyl-L-arginine aldehyde (1) is presented in detail in Tables 6 and 7. The corresponding values of C1 are listed as controls. The compound was administered p.o. in doses of 5 mg/kg. The blood samples drawn from the caudal vein in every 30-60 minutes were analysed. The whole blood clotting time (WBCT) and the inhibition of thrombin-induced blood platelet aggregation (PAI) were determined. The activated partial thromboplastin time (APTT) and the thrombin time (TT) in the citrate plasma obtained from the blood sample were also measured. The APTT and TT values are compiled in Table 6 and the WBCT and PAI values in Table 7.

For assay [5], the system named is thrombin-induced blood platelet aggregation. Description: ex vivo inhibition of thrombin-induced blood platelet aggregation (PAI) in rabbits after p.o. dosing. Set-up: species or system rabbit. The following applies: Oryctolagus cuniculus, Platelet, po, p.o. 5 mg/kg, read-out: PAI (%), percentual inhibition of platelet aggregation. The procedure:
as §4, §5

The test system of assay [6] is New Zealand white rabbits. Briefly: anticoagulant and platelet aggregation inhibiting effect in rabbits ex vivo, time course. Further details: species or system rabbit. To be noted: p.o. 5 mg/kg. The procedure:
as §4, §5

Where two headings read alike, the source gives them in different places.

One may read the IC50 as the point on the concentration scale where inhibition reaches its midpoint. What is called inhibition is the drop in the measured response relative to a control, in per cent. Take `CCOC(=O)N[C@H](CC1CCC1)C(=O)N1CCC[C@H]1C(=O)N[C@H](C=O)CCCNC(=N)N` [Example 1, Ethoxycarbonyl-3-cyclobutyl-D-alanyl-L-prolyl-L-arginine aldehyde]: the IC50 came to 1150 nM in the assay on citrate plasma [1], 350 nM in the assay on citrate plasma [2], 110 nM at thrombin and 320 nM in assay [3]. For the same molecule, the “TT relative clotting time” value is listed as 1.0 in assay [4] (0 min); 8.30 ± 5.67 in assay [4] (30 min); 9.04 ± 5.50 in assay [4] (45 min); 9.28 ± 5.45 in assay [4] (60 min); 13.58 ± 5.43 in assay [4] (90 min); 16.33 ± 5.89 in assay [4] (120 min). Besides, the “TT relative clotting time” value in assay [4] (180 min) worked out at 6.95 ± 3.73; in assay [4] (240 min) it was 2.03 ± 0.42; in assay [4] (300 min) it was 1.77 ± 0.50. Besides, the inhibition at 5 mg/kg in assay [5] (0 h, 0 min) amounted to 1%; in assay [5] (0.5 h, 30 min), 71.3 ± 16.6%; in assay [5] (0.75 h, 45 min), 55.8 ± 17.4%; in assay [5] (1 h, 60 min) it was 63.8 ± 21.2%; in assay [5] (1.5 h, 90 min) it was 85.6 ± 10%; in assay [5] (2 h, 120 min) it was 73.6 ± 19.1%. Also, the inhibition at 5 mg/kg was 81.8 ± 11.6% in assay [5] (3 h, 180 min); 59.4 ± 19.1% in assay [5] (4 h, 240 min); 75.8 ± 11.8% in assay [5] (5 h, 300 min). Also, the “duration of anticoagulant and antiaggregation effect compared to control C1” value in assay [6] is reported as “longer-lasting”.
